Assay [1] has as its system streptozotocin induced diabetic rat. As to the kind of experiment: Biological activity of purified adipocyte insulin on streptozotocin induced diabetic rat. The format is in vivo. How it is done:
FIG. 5. Determination of biological activity of purified adipocyte insulin on streptozotocin induced diabetic rat. (a) The male Sprague Dawley rats of 100–150 g weight were selected for streptozotocin (STZ) treatment. […] (A) STZ untreated rats, only vehicle (0.9% saline) injected (n-6), (B) STZ rat, vehicle injected (n-6), (C) STZ rat injected with AdpInsl 10 μg/100 g body wt of rat (n-6). (D) STZ rat injected with 10 ug/100 g body wt of rat (n=6J porcine insulin. Each value is ±SEM of 6 observations. p<0.001 when C is compared with B,**p<0.05 when C is compared with D.
Insulin injection-Adipocyte IR-insulin (20 ug per 100 gm body weight) from incubation medium or 10 ug AdpInsl or porcine insulin was intraperitoneally injected into the male Sprague Dawley rats weighing between 100–150 g. After 6 hrs of injection blood was collected by retroorbital puncture using capillary tube, centrifuged to collect plasma and glucose content was determined by glucose-glucose oxidase method.

In another assay the test system is carp adipocytes. As to the kind of experiment: Determination of insulin activity in vitro: D-14C-glucose uptake by adipocytes. The format is cell-based, carp Catla catla. As for the experimental part: (b) Effect of AdpInsl and porcine insulin (PI) on glucose uptake by carp adipocytes. Adipocytes 1×10^5 cells/incubation, suspended in MEM containing 1% fetal calf serum and preincubated for 2 hours in the absence of insulin, after addition of D-^14C-glucose uptake was determined by the procedure described under the “Experimental procedures”. *p<0.05 when AdpInsl is compared with porcine insulin.
Determination of insulin activity in vitro—Freshly prepared adipocytes were suspended in the MEM and after 2 h 1.0 microCi of D-(^14C) glucose (final concentration 25 uM| containing was added to the adipocyte incubation. 25 ng/ml of AdpInsl or porcine insulin was added to the incubation and uptake of glucose was measured by following a previously described method (21). Initial rates of glucose uptake was determined from the incubation of adipocyte without insulin. The reaction was stopped at 3 min by washing the cells three times with ice cold MEM in the presence of 0.3 mM phloretin to correct the glucose uptake data from simple diffusion and nonspecific trapping of radioactivity.

Entries after “also recorded” stand apart in the source; their conditions may differ.

Take “AdpInsl: Insulin purified from Catla catla carp adipocytes, A chain SEQ ID No. 1 (21 aa), B chain SEQ ID No. 2 (30 aa) (chain 1 GIVEQCCHKPCSIFELQNYCN; chain 2 PGAPQHLCGSHLVDALYLVCGPTGFFYNPK; listed as Catla catla)”: the “hypoglycemic activity greater than porcine insulin” value in assay [1] (STZ rat, 10 ug/100 g body wt each insulin, p<0.05) is 25%. Further, the hyperglycemia entry in assay [1] (STZ rat, 10 ug/100 g body wt i.p., 6 hrs, p<0.001 compared with control) is recorded as “significantly reduced hyperglycemia”. Also, the “hypoglycemic effect compared to porcine insulin” value in assay [1] (streptozotocin induced diabetic rat) is reported as “significantly stronger hypoglycemic effect”. For the same substance, the “increase in glucose uptake by adipocyte” value in the assay with carp adipocytes (25 ng/ml insulin, 1x10^5 cells/incubation, uptake stopped at 3 min) is given as “more than 2 fold”. The “stimulation of glucose uptake compared with porcine insulin” value in the assay with carp adipocytes (25 ng/ml of each insulin, p<0.05) is reported as “significantly higher; also recorded: more actively than porcine insulin”.

For the origin of these results see US7129211B2, “Adipocyte Insulin adpinsl with Insulin A and B chains and an effective method of treating type 2 diabetes in a subject using adipocyte insulin” (Council of Scientific and Industrial Research, priority 2002, dated 2006).
